Test results published in patent US12369582B2, “Pyridyloxyacetic acid compound and use of same” (SUMITOMO CHEMICAL COMPANY, LIMITED, priority 2019, dated 2025).

System: Phytophthora capsici
Assay: Titer plate growth inhibition test on Phytophthora capsici zoospores in potato dextrose broth
Type: cell-based
Details: final concentration 100 ppm; cultured at 27° C. for 3 days; absorbance at 600 nm vs non-treated section
Description: Next, test examples are shown. A non-treated in Test Example 1 means a section in which the same operation as in a treated section is performed except that Compound A is not used. After dispensing 1 μL of a dimethyl sulfoxide solution containing a predetermined concentration of Compound A into wells of a titer plate (96 wells), 150 μL of a potato dextrose broth containing zoospores of Phytophthora capsici was dispensed, and the mixture was prepared so as to have a final concentration of Compound A of 100 ppm and defined as a treated section. In addition, a non-treated section was prepared in other wells. The plate was cultured at 27° C. for 3 days to proliferate Phytophthora capsici […], and then the absorbance at 600 nm of each well of the titer plate was measured and defined as the growth degree of Phytophthora capsici. Based on the growth degree, the efficacy was calculated using “Formula 1”. Efficacy(%)=100×(X−Y)/X “Formula 1” • X: Growth degree of bacteria in non-treated section • Y: Growth degree of bacteria in treated section A test was performed according to Test Example 1 using sodium salt monohydrate of Compound A in place of Compound A. As a result, the efficacy was 90%. A test was performed according to Test Example 1 using Compound B in place of Compound A. As a result, the efficacy was 64%.

SMILES: O=C(O)COc1ncccc1Oc1ccc(F)cc1Cl [Compound A, 2-{[3-(2-Chloro-4-fluorophenoxy)pyridin-2-yl]oxy}acetic acid]
- Efficacy: 100%

SMILES: CCOC(=O)COc1ncccc1Oc1ccc(F)cc1Cl [Compound B, 2-{[3-(2-chloro-4-fluorophenoxy)pyridin-2-yl]oxy}acetic acid ethyl ester]
- Efficacy: 64%
